These results are taken from patent US12427161B2, “Methods for treating and pharmaceutical compositions” (Boehringer Ingelheim International GmbH, priority 2015, dated 2025).

For assay [1] the following is noted: metformin on its own, in the diabetic; cited from earlier work.
In assay [2] the test system is Goto-Kakizaki diabetic rats (GK rats). In words: Erectile responses to electrical stimulation of the cavernous nerve (ES CN), intracavernous pressure in anesthetized rats. It is filed as in vivo, rat. How it is done:
Adult male Wistar (Charles River, France) and age-matched GK rats (Metabrain Research, Chilly-Mazarin, France) were housed at least 7 days prior to the beginning of the treatment with free access to control diet and water and maintained on an inversed 12 h dark/light cycle. At 15 weeks of age, treatments were started; n=12 Wistar (group I) rats and n=24 GK (group II) rats were fed with a control diet, while n=24 GK rats (group III) were fed for 28 days by a medicated diet i.e., control diet premixed with empagliflozin 300 ppm (parts per million corresponding to an average of 25.3 mg/kg body weight of empaglfilozin in that experiment).
On day 29th after starting treatment administration, and approximately 16 hours after the last treatment administration, fasted rats (19 weeks of age) underwent an in vivo evaluation of their erectile function after electrical stimulation of the cavernous nerve (ES CN), in comparison to acute dosing of sildenafil.
Erectile responses were elicited by electric stimulation (ES) of the cavernous nerve (CN) and measured by monitoring intracavernous pressure (ICP) in anesthetized rats according to an experimental procedure previously described and well-standardized. After an overnight fasting period, rats were anesthetized (urethane […]) and their temperature maintained at 37° C. using a homoeothermic blanket. A tracheotomy was performed to prevent aspiration of saliva and to perform, when required, artificial ventilation. The carotid artery was catheterized with polyethylene tubings filled with heparinized saline (25 UI/ml) to record blood pressure (BP) via a pressure transducer (Elcomatic 750, Glasgow, UK). Simultaneous computerized measure of BP and ICP was performed. CN was exposed at the lateral aspect of the prostate, with the aid of a dissecting microscope and mounted on a bipolar platinum electrode connected to an electrical stimulator (AMS 2100, Phymep, France). In some animals an acute dose of sildenafil (0.3 mg/kg) or vehicle was intravenously injected. […] The CN was stimulated at 6V, 1 ms for 45 s by different stimulation frequencies (0, 2.5, 5, 7.5, 10, 12.5 and 15 Hz) in a randomized manner in order to assess the erectile responses. These different electrical stimulations on the increase of ICP were repeated twice in view of establishing a frequency-response curve for each animal.
Mean arterial pressure (MAP) and the amplitude of the erectile responses elicited by each ES CN were quantified for each rat and averaged for each experimental group by calculating: • ICP (mmHg)/MAP (mmHg)×100 with AICP being the difference between ICP in the flaccid state, i.e. before stimulation and ICP during the plateau phase of the erectile response, and MAP, the mean arterial pressure during the plateau phase. • AUC45/MAP with AUC45, the area under the curve during the first 45 seconds after the beginning of the electrical stimulation of the cavernous nerve and determined using the ICP level in the flaccid state before the onset of the stimulation. • AUCtot/MAP with AUCtot, the area under the curve during the entire erectile response, measured from the beginning of the electrical stimulation until the end of the erectile response and determined using the ICP level in the flaccid state before the onset of the stimulation. • ICP increase and AUC were normalized with MAP to account for the close influence of the systemic blood pressure in the amplitude of ICP increase during the plateau phase of the erectile response.
For erectile function evaluation, comparisons of frequency-response curves were performed with a two-way ANOVA statistical analysis test followed by a Bonferroni's post-test. In case of significant interaction between the two factors (i.e. frequency of ES CN and experimental group), the difference between groups of rats was examined by the modified Student's t-test with the Bonferroni's adjustment for multiple comparisons.

Assay [3] has as its system corporal strips of diabetic GK rats. In words: EFS-induced relaxation of PHE-precontracted corpora cavernosa strips (ex vivo isometric tension). More on the design: species or system rat. How it is done:
In addition, to further evaluate erectile function, at the end of the in vivo evaluation of the ED, the penis of 24 GK rats (groups IIA & IIIA) and 12 wistar rats (group I) were immediately harvested and the corpora cavernosa (CC) dissected for ex vivo isometric tension studies. After extensive washings, corporal strips were incubated in the presence of guanethidine (5 μM) and atropine (1 μM) that were also added to the organ chambers for the remainder of the experiments. The corporal strips were placed between two parallel platinum electrodes in the organ baths. After equilibration (60 min), the electric field stimulation (EFS) experiments were started. Firstly, a priming period was observed where corporal strips from Wistar, GK (control) and GK_Chronic empa were exposed to phenylephrine (PHE) (10^−5 M) followed by an EFS-induced relaxation at 1 ms, 10 s, 300 mA and 20 Hz. Then, after washings, frequency-response curves (FRC) to EFS (1-2-4-8-16-32 Hz) was constructed on PHE-precontracted corporal strips (PHE 10^−5 M). Frequency response-curves (FRC) to EFS were performed by successive stimulation of the corporal strips at 1 ms, 10 s, 300 mA and increasing frequencies (1, 2, 4, 8, 16 and 32 Hz). […]
The results from duplicate determinations in one experiment with CC from one rat were averaged and the data expressed as mean±SEM for N experiments using CC from N different rats. […]

In the next assay the test system is GK rats. The settings on record: acute single dose 0.3 mg/kg; cited from earlier work.

`CN(C)C(=N)N=C(N)N` [metformin]: the “average improvement in the HbA1c value” in assay [1] is given as 1.0-1.5%.

`OC[C@H]1O[C@@H](c2ccc(Cl)c(Cc3ccc(O[C@H]4CCOC4)cc3)c2)[C@H](O)[C@@H](O)[C@@H]1O` [empagliflozin, 1-chloro-4-(β-D-glucopyranos-1-yl)-2-[4-((S)-tetrahydrofuran-3-yloxy)-benzyl]-benzene]: the “pro-erectile facilitator effect compared with acute IV dose of sildenafil at 0.3 mg/kg” value in assay [2] (chronic empagliflozin 25.3±0.9 mg/kg/day) is “slightly but significantly lower”. Besides, the “erectile responses to ES CN in terms of ΔICP/MAP” value in assay [2] (empagliflozin in diet 25.3±0.9 mg/kg/day for 4 weeks, vs GK control diet, p=0.08, 2-way ANOVA, FIG. 1) is given as “no difference could be statistically detected”. The “erectile responses to ES CN in terms of AUC45/MAP” value in assay [2] (empagliflozin premixed with diet 25.3±0.9 mg/kg/day for 4 weeks, vs GK control diet, p<0.05, FIG. 2a) is recorded as “improved”. Further, the “erectile responses to ES CN in terms of AUCtot/MAP” value in assay [2] (empagliflozin premixed with diet 25.3±0.9 mg/kg/day for 4 weeks, vs GK control diet, p<0.05, FIG. 2b) is given as “improved”. In assay [3] (4-week empagliflozin 25.3±0.9 mg/kg/d, mean±SEM, not significantly different from untreated), the “maximal relaxation induced by EFS at 32 Hz (percentage of inhibition of the contractile response to PHE)” value was −42.0±2.9%. Besides, the “relaxation induced by EFS on PHE precontracted cavernosal strips (frequency-response curve)” value in assay [3] (4-week treatment of empagliflozin at 25.3±0.9 mg/kg/d, vs untreated GK, p<0.05, 2-way ANOVA, FIG. 3) was “slightly but significantly improved”.

As for `CCCc1nn(C)c2c(=O)[nH]c(-c3cc(S(=O)(=O)N4CCN(C)CC4)ccc3OCC)nc12` [sildenafil], in assay [2] (sildenafil 0.3 mg/kg acute i.v. 4 min before evaluation, vs GK control, p<0.0001, 2-way ANOVA, FIG. 1), the “erectile response to ES CN in terms of ΔICP/MAP” value is given as “significantly increased”. In assay [2] (sildenafil 0.3 mg/kg acute i.v., vs GK control, p<0.0001, 2-way ANOVA, FIG. 2a), the “erectile response to ES CN in terms of AUC45/MAP” value was “significantly increased”. In addition, the “erectile response to ES CN in terms of AUCtot/MAP” value in assay [2] (sildenafil 0.3 mg/kg acute i.v., vs GK control, p<0.0001, 2-way ANOVA, FIG. 2b) was “significantly increased”. Also, in the assay with GK rats, the “impaired erectile function in GK rats” value is on record as “partially improved”.
